The values that follow come from PubChem BioAssay AID1259411 (Chemical Carcinogenesis Research Information System (CCRIS), 2018).

For this data set, the system named is rodent carcinogenicity bioassays, tumor incidence. The data set is described as follows: CCRIS carcinogenicity studies. The settings on record: Route: ORAL, Dose: 0, Dose: 0. The gist of the method: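 NCI-built, expert-reviewed records of carcinogenicity and related test outcomes (mutagenicity, tumor promotion/inhibition) compiled from published and report sources, historical span 1985-2011, not updated.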

Active and inactive are the calls of the source. How the calls were made is not given here.

With `Nc1c(Br)cc(Br)c2c1C(=O)c1ccccc1C2=O`, the carcinogen call is, setting by setting: (Species: MOUSE, Strain/Sex: B6C3F1/FEMALE, 10000, 20000 PPM IN DIET FOR 104 WK (STUDY DURATION: 106 WK), 10000, 20000 PPM IN DIET FOR 104 WK (STUDY DURATION: 106 WK), Tumor Site: Type of Lesion: LIVER: HEPATOCELLULAR ADENOMA, HEPATOCELLULAR CARCINOMA, FORESTOMACH: SQUAMOUS CELL ADENOMA, SQUAMOUS CELL CARCINOMA, LU, Tumor Site: Type of Lesion: LIVER: HEPATOCELLULAR ADENOMA, HEPATOCELLULAR CARCINOMA, FORESTOMACH: SQUAMOUS CELL ADENOMA, SQUAMOUS CELL CARCINOMA, LU) “active; positive”; (Species: MOUSE, Strain/Sex: B6C3F1/MALE, 10000, 20000 PPM IN DIET FOR 104 WK (STUDY DURATION: 106 WK), 10000, 20000 PPM IN DIET FOR 104 WK (STUDY DURATION: 106 WK), Tumor Site: Type of Lesion: LIVER: HEPATOCELLULAR ADENOMA, HEPATOCELLULAR CARCINOMA, HEPATOBLASTOMA, FORESTOMACH: SQUAMOUS CELL PAPILLOMA, SQUAMOUS) “active; positive”; (Species: RAT, Strain/Sex: F344/FEMALE, 2000, 5000, 10000 PPM IN DIET FOR UP TO 104 WK (STUDY DURATION: 106 WK), 2000, 5000, 10000 PPM IN DIET FOR UP TO 104 WK (STUDY DURATION: 106 WK), Tumor Site: Type of Lesion: LIVER: HEPATOCELLULAR ADENOMA, HEPATOCELLULAR CARCINOMA, HEPATOCHOLANGIOCARCINOMA, LARGE INTESTINE: ADENOMA, CARCINOMA;, Tumor Site: Type of Lesion: LIVER: HEPATOCELLULAR ADENOMA, HEPATOCELLULAR CARCINOMA, HEPATOCHOLANGIOCARCINOMA, LARGE INTESTINE: ADENOMA, CARCINOMA) “active; positive”; (Species: RAT, Strain/Sex: F344/MALE, 2000, 5000, 10000 PPM IN DIET FOR UP TO 104 WK (STUDY DURATION: 106 WK), 2000, 5000, 10000 PPM IN DIET FOR UP TO 104 WK (STUDY DURATION: 106 WK), Tumor Site: Type of Lesion: LIVER: HEPATOCELLULAR ADENOMA, HEPATOCELLULAR CARCINOMA, HEPATOCHOLANGIOCARCINOMA, LARGE INTESTINE: ADENOMA, CARCINOMA;, Tumor Site: Type of Lesion: LIVER: HEPATOCELLULAR ADENOMA, HEPATOCELLULAR CARCINOMA, HEPATOCHOLANGIOCARCINOMA, LARGE INTESTINE: ADENOMA, CARCINOMA) “active; positive”.

On to `Cc1c(N(C)C)c(=O)n(-c2ccccc2)n1C`, for which the carcinogen call (Species: MOUSE, Strain/Sex: B6C3F1/FEMALE, 0.04, 0.08% IN DRINKING WATER FOR 100 WK (STUDY DURATION: 104 WK), 0.04, 0.08% IN DRINKING WATER FOR 100 WK (STUDY DURATION: 104 WK)) was “inactive; negative” and the carcinogen call (Species: MOUSE, Strain/Sex: B6C3F1/MALE, 0.04, 0.08% IN DRINKING WATER FOR 100 WK (STUDY DURATION: 104 WK), 0.04, 0.08% IN DRINKING WATER FOR 100 WK (STUDY DURATION: 104 WK)) was “inactive; negative”.

In the case of `Nc1nc(N)nc(N)n1`, the carcinogen call is “inactive; negative” (Species: MOUSE, Strain/Sex: B6C3F1/FEMALE, 2250, 4500 PPM IN DIET FOR 103 WK, 2250, 4500 PPM IN DIET FOR 103 WK); “inactive; negative” (Species: MOUSE, Strain/Sex: B6C3F1/MALE, 2250, 4500 PPM IN DIET FOR 103 WK, 2250, 4500 PPM IN DIET FOR 103 WK); “inactive; negative” (Species: RAT, Strain/Sex: F344/FEMALE, 4500, 9000 PPM IN DIET FOR 103 WK, 4500, 9000 PPM IN DIET FOR 103 WK); “active; positive” (Species: RAT, Strain/Sex: F344/MALE, 0.3, 1, 3% IN DIET FOR 36 WK (STUDY DURATION: 40 WK), 0.3, 1, 3% IN DIET FOR 36 WK (STUDY DURATION: 40 WK), Tumor Site: Type of Lesion: BLADDER: PAPILLOMA, CARCINOMA); “active; positive” (Species: RAT, Strain/Sex: F344/MALE, 1, 3% IN DIET CONTAINING 5% SODIUM CHLORIDE FOR 36 WK (STUDY DURATION: 40 WK), 1, 3% IN DIET CONTAINING 5% SODIUM CHLORIDE FOR 36 WK (STUDY DURATION: 40 WK), Tumor Site: Type of Lesion: URAINARY BLADDER: PAPILLOMA, CARCINOMA); “inactive; negative” (Species: RAT, Strain/Sex: F344/MALE, 1, 3% IN DIET CONTAINING 10% SODIUM CHLORIDE FOR 36 WK (STUDY DURATION: 40 WK), 1, 3% IN DIET CONTAINING 10% SODIUM CHLORIDE FOR 36 WK (STUDY DURATION: 40 WK)). For the same compound, the carcinogen call was “active; positive” (Species: RAT, Strain/Sex: F344/MALE, 1, 3% IN DIET FOR 36 WK (STUDY DURATION: 40 WK), 1, 3% IN DIET FOR 36 WK (STUDY DURATION: 40 WK), Tumor Site: Type of Lesion: URINARY BLADDER: PAPILLOMA, CARCINOMA) and “active; positive” (Species: RAT, Strain/Sex: F344/MALE, 2250, 4500 PPM IN DIET FOR 103 WK, 2250, 4500 PPM IN DIET FOR 103 WK, Tumor Site: Type of Lesion: URINARY BLADDER: TRANSITIONAL CELL PAPILLOMA OR CARCINOMA).
